From US20020142334A1, “Methods of detecting poly(ADP-ribose) polymerase enzymatic activity” (priority 2001, published 2002)
Read-outs that look alike come from different tables or passages of the source.

Legend:
[1] = target: T1, PARP (Homo sapiens, UniProt P09874); assay: commercially available [32P] NAD-based PARP assay (R&D Systems); format: biochemical; conditions: [32P]-NAD based kit
T1 construct: purchased R&D Systems, Inc. TA5334
Protocol: The present method was conducted in the presence of known PARP inhibitors of varying potencies, tested at a range of concentrations. The experiment was conducted to determine if the IC50 values generated by the assay of the present invention were in agreement with previously reported IC50 values for these compounds and IC50 values generated by a commercially available [^32P] NAD-based PARP assay (R&D Systems, Inc., Minneapolis, Minn., Cat#TA5334). [^32P]-NAD was obtained from Amersham Pharmacia Biotech, Piscataway, N.J.

[2] = target: T1, PARP; conditions: reported values, see footnote; read-out: IC50 cited in the Literature; cited from earlier work
[3] = target: T2, human PARP-1 (Homo sapiens, UniProt P09874); assay: Biotin-Avidin PARP assay (biotinylated NAD auto-ribosylation, immobilized PARP); format: biochemical
T2 construct: purchased Trevigen 4667-250-01
T2 sequence (P09874 whole entry): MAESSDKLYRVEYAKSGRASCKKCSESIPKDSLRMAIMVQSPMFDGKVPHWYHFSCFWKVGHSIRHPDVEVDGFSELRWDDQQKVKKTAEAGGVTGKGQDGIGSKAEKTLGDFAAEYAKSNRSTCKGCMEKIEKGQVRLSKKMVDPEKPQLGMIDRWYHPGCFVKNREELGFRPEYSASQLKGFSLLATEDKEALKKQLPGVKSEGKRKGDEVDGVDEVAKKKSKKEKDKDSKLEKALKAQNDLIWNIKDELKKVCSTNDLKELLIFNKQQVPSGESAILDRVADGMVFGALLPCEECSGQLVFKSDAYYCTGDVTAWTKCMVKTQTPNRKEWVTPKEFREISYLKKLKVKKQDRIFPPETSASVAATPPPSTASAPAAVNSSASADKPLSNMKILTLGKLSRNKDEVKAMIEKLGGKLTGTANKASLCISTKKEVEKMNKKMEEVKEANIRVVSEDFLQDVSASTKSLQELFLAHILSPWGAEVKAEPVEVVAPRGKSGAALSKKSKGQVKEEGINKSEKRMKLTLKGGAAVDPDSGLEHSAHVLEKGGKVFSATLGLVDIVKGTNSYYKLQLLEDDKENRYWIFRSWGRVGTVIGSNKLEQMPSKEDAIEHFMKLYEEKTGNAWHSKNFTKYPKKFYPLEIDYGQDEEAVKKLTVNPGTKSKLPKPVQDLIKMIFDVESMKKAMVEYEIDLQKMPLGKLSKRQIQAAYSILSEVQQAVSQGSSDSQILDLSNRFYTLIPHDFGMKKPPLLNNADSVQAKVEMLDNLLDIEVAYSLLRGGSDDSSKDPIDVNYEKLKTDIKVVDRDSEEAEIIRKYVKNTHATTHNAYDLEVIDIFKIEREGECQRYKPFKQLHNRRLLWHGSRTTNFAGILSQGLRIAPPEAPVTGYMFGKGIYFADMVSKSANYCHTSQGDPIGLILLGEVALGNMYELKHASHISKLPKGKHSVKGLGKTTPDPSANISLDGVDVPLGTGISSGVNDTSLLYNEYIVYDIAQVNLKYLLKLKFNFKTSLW
Protocol: ELISA plates (96-well) were coated with recombinant human PARP-1 overnight at 4° C.
Prior to the activity assay, the plates were washed three times in PBS-T.
The control reactions were carried out in the absence of sheared DNA in order to determine background activity for the reaction(s). […] The optical density for each sample was measured at 410 nm.
The inhibitors were first dissolved in DMSO and then serially diluted in DMSO to create stock solutions which were added to the auto-ribosylation buffer to achieve the desired range of final concentrations of the inhibitors in the nanomolar to millimolar range.

T1 sequence (P09874 whole entry): as above

| SMILES | IC50 [1] | IC50 [2] | IC50 [3] | IC50 ([3]; PARP-1 coated on plates overnight at 4° C., 25 μM biotinylated NAD, 100 μM unlabelled NAD, sheared DNA, read-out: Biotin Avidin PARP (IC50)) |
| --- | --- | --- | --- | --- |
| Cc1nc2c(O)cccc2c(=O)[nH]1 [Compound A, 8-hydroxy-2-methyl-quinazolin-4-[3H]-one] | 0.318 µM | 0.4 µM | 0.46 µM |  |
| NC(=O)c1cccc2cccc(C(=O)O)c12 [Compound B, 8-carboximido-napthalene-1-carboxylic acid] | 0.334 µM | 0.25 µM |  | 0.329 µM |
